Measured values taken from patent US20240131036A1, “COMPOSITIONS AND METHODS OF TREATING CONDITIONS” (priority 2020, published 2024).
Where two headings read alike, the source gives them in different places.

Key:
[1] = system: human epithelial cells; test: Gene Set Enrichment Analysis (GSEA) of microarray data (GSE117351), antiviral pathways; format: cell-based; parameters: key: ^..: the effect is absent
[2] = very high doses (3-60 μg/kg); cited from earlier work
[3] = target: SARS-CoV-2 3CL^Pro (M^pro) (Severe acute respiratory syndrome coronavirus 2 (2019-nCoV) (SARS-CoV-2), UniProt P0DTD1); test: Enzymatic assay for M^pro (3CL Protease, MBP-tagged assay kit); format: biochemical; conditions: for inhibition at 0.2 µM: 2×10^−7 M, read-out: M^pro enzyme inhibition
Description: FIG. 1.3A and 1.3B illustrate the enzyme inhibition by the selected sterols and secosteroids. […] Min=negative control without any enzyme (0% enzyme activity), Max=positive control with enzyme and substrate (100% enzyme activity). […] The statistical significance of differences was evaluated by one-way ANOVA, *p<0.05, **p<0.01, ***p<0.001, for all conditions relative to the ethanol blank, n=3. FIG. 1.3B illustrates the RdRP enzyme activity inhibition by selected sterols and secosteroids. […] Min=negative control without any enzyme (0% enzyme activity), Max=positive control with enzyme and substrate (100% enzyme activity). The statistical significance of differences was evaluated by one-way ANOVA, *p<0.05, **p<0.01, ***p<0.001, for all conditions relative to the ethanol blank, n=3
The SARS-CoV-2 3CL^Pro (M^pro), MBP-tagged Assay Kit (BPS Biosciences, San Diego, CA, USA) was used to measure 3CL Protease (M^pro) activity for screening and profiling applications. The 3CL inhibitor GC376 was included as a positive control and also used as a standard. The assay was performed according to the protocol provided by the manufacturer with the concentration of compounds tested being 10^−7 M.

[4] = target: SARS-CoV-2 RdRP (Severe acute respiratory syndrome coronavirus 2 (2019-nCoV) (SARS-CoV-2), UniProt P0DTD1); test: Enzymatic assay for RdRP (AlphaScreen, BPS Biosciences); format: biochemical
Description: Min=negative control without any enzyme (0% enzyme activity), Max=positive control with enzyme and substrate (100% enzyme activity). […] The statistical significance of differences was evaluated by one-way ANOVA, *p<0.05, **p<0.01, ***p<0.001, for all conditions relative to the ethanol blank, n=3. […] Min=negative control without any enzyme (0% enzyme activity), Max=positive control with enzyme and substrate (100% enzyme activity). The statistical significance of differences was evaluated by one-way ANOVA, *p<0.05, **p<0.01, ***p<0.001, for all conditions relative to the ethanol blank, n=3
The assay for RdRP activity was outsourced to BPS Biosciences ([…], California, USA) using the following protocol. […] The RdRP reactions were performed in triplicate at 37° C. for 60 min in a 10 μl mixture containing assay buffer, RNA duplex, ATP substrate and enzyme, and the test compound. The reactions were carried out in wells of 384-well Optiplate (PerkinElmer). After enzymatic reactions, 10 μl of anti-Dig Acceptor beads (PerkinElmer, diluted 1:500 with lx detection buffer) were added to the reaction mix. After brief shaking, the plate was incubated for 30 min. […] The values of % activity versus the concentrations of the compound tested were then plotted using non-linear regression analysis of a Sigmoidal dose-response curve generated with the equation Y=B+(T−B)/1+10^((LogEC50−X)×Hill Slope), where Y=percent activity, B=minimum percent activity, T=maximum percent activity, X=logarithm of compound and Hill Slope=slope factor or Hill coefficient. The IC50 value was determined as the concentration causing half-maximal activity.

[5] = pathway: Host Interactions with HIV factors
[6] = pathway: Host Interactions with Influenza Factors
[7] = pathway: Influenza Viral RNA Transcription & Replication
[8] = read-out: IC50 for inhibition of the enzyme activity of RdRP

## C=C1/C(=C\C=C2/CCC[C@]3(C)[C@@H]([C@H](C)CCCC(C)(C)O)CC[C@@H]23)C[C@@H](O)C[C@@H]1O [1,25(OH)2D3, (3S,5Z,7E)-9,10-secocholesta-5,7,10(19)-trien-1,3,25-triol, reference compound]
[1]
  GSEA Direction: ^..
  GSEA NES (Normalized Enriched Score): ^..
[1]; pathway: HIV Life Cycle
  GSEA NES (Normalized Enriched Score): −2.503
[1]; [5]
  GSEA Direction: ^..
  GSEA NES (Normalized Enriched Score): ^..
[1]; [6]
  GSEA Direction: ^..
  GSEA NES (Normalized Enriched Score): ^..
[1]; [7]
  GSEA Direction: ^..
  GSEA NES (Normalized Enriched Score): ^..
[1]; pathway: Late Phase of HIV Life Cycle
  GSEA NES (Normalized Enriched Score): −2.658
[1]; pathway: Viral Messenger RNA Synthesis
  GSEA NES (Normalized Enriched Score): −2.405
[1]; pathway: Viral mRNA Translation
  GSEA NES (Normalized Enriched Score): −3.601
[2]
  toxicity and calcemic activity: calcemic

## C=C1CCC(O)CC1=CC=C1CCCC2(C)C1CCC2C(C)(O)C=CC(C)C(C)C (stereo not shown) [20(OH)D2, 20-hydroxyvitamin D2]
[2]
  toxicity and calcemic activity: not toxic and non-calcemic

## CC(C)CCC[C@](C)(O)[C@H]1CC[C@H]2C3=CC=C4C[C@@H](O)CC[C@]4(C)[C@H]3CC[C@@]21C [20S(OH)7DHC, Cholesta-5,7-dien-3β,20-diol]
[3]
  inhibition at 0.2 µM: 10 to 19%
[4]; [8]
  IC50: 4700 nM

## C=C1CC[C@H](O)C/C1=C/C=C1\CCC[C@@]2(C)[C@H]1CC[C@@H]2[C@@](C)(O)CCCC(C)C [20S(OH)D3, (3S,5Z,7E)-9,10-secocholesta-5,7,10(19)-trien-3,20-diol]
[4]
  IC50: 2600 nM

## CC(C)CCC[C@](C)(O)[C@H]1CC[C@H]2C3=CC=C4C[C@@H](O)CC[C@@]4(C)[C@@H]3CC[C@@]21C [20S(OH)L3, 9β,10α-cholesta-5,7-diene-3β,20-diol]
[4]; [8]
  IC50: 1000 nM

## CC(C)[C@@H](O)CC[C@@H](C)[C@H]1CC[C@H]2C3=CC=C4C[C@@H](O)CC[C@@]4(C)[C@@H]3CC[C@]12C [24(OH)L3, 9β,10α-cholesta-5,7-diene-3β,24-diol]
[3]
  inhibition at 0.2 µM: 10 to 19%
[4]; [8]
  IC50: 2500 nM

## C[C@H](CCCC(C)(C)O)[C@H]1CC[C@H]2C3=CC=C4C[C@@H](O)CC[C@@]4(C)[C@@H]3CC[C@]12C [25(OH)L3, 9β,10α-cholesta-5,7-diene-3β,25-diol]
[3]
  inhibition at 0.2 µM: 10 to 19%
[4]; [8]
  IC50: 500 nM

## (3S,5Z,7E)-9,10-secocholesta-5,7,10(19)-trien-3,25-diol [25(OH)D3, reference compound]
[3]; 100 nM
  inhibition of M^pro (in words): significant inhibition
[2]
  toxicity and calcemic activity: calcemic
[4]; [8]
  IC50: 1300 nM
